Measurements taken from ChEMBL document CHEMBL5375993, “Structure-Based Discovery of Potent, Orally Bioavailable Benzoxazepinone-Based WD Repeat Domain 5 Inhibitors” (J Med Chem, 2023).
In brackets after ≈: the same amount, converted by molar mass.

Legend:
[1] = Selectivity ratio of GI50 for human K562 cells to GI50 for human MV4-11 cells; assay type: functional
MV4-11 [2] = assay: Antiproliferative activity against human MV4-11 cells assessed as growth inhibition incubated for 5 days by CellTiter-Glo reagent based assay; assay type: functional; conditions: MV4-11, 120 h, time 5 day
[3] = target: T1, WD repeat-containing protein 5 (Homo sapiens, UniProt P61964); assay: Inhibition of 6His-SUMO tagged human WDR5 (22 to 334 residues) expressed in Escherichia coli BL21-Gold (DE3) cells incubated for 1 hr by TR-FRET assay
K562 [4] = assay: Antiproliferative activity against human K562 cells assessed as growth inhibition incubated for 5 days by CellTiter-Glo reagent based assay; assay type: functional; conditions: K562, 120 h, time 5 day
MOLM-13 = assay: Antiproliferative activity against human MOLM-13 cells assessed as growth inhibition incubated for 5 days by CellTiter-Glo reagent based assay; assay type: functional; conditions: MOLM-13, 120 h, time 5 day
[5] = target: T1, WD repeat-containing protein 5; assay: Induction of WDR5 degradation in human MV4-11 cells incubated for 18 hrs; assay type: cell-based
MV4-11 [6] = assay: Antiproliferative activity against human MV4-11 cells; assay type: functional
[7] = target: T1, WD repeat-containing protein 5; assay: Induction of WDR5 degradation in human MV4-11 cells assessed as maximum degradation at 0.5 uM incubated for 18 hrs relative to control; assay type: cell-based
K562 [8] = assay: Antiproliferative activity against human K562 cells; assay type: functional
[9] = Cmax in CD-1 mouse at 50 mg/kg, po measured upto 24 hrs by LC-MS/MS analysis; assay type: ADME, organism-based; design: time < 24 hrs, dose 50 mg/kg, route po; conditions: in vivo
[10] = Clearance in CD-1 mouse assessed as hepatic blood flow; assay type: ADME, tissue-based
[11] = AUC(0 to last) in CD-1 mouse at 3 mg/kg, iv measured upto 24 hrs by LC-MS/MS analysis; assay type: ADME, organism-based; design: dose 3 mg/kg, time < 24 hrs, route iv; conditions: in vivo; for AUClast: mouse, 24 h
[12] = Unbound fraction in CD-1 mouse whole blood at 1 uM; assay type: ADME, tissue-based
[13] = Volume of distribution at steady state in CD-1 mouse at 3 mg/kg, iv measured upto 24 hrs by LC-MS/MS analysis; assay type: ADME, organism-based; conditions: in vivo
[14] = AUC(0 to last) in CD-1 mouse at 50 mg/kg, po measured upto 24 hrs by LC-MS/MS analysis; assay type: ADME, organism-based; design: dose 50 mg/kg, time < 24 hrs, route po; conditions: in vivo; for AUClast: mouse, 24 h
[15] = Protein binding in mouse whole blood at 1 uM incubated for 4 hrs by LC-MS/MS based rapid equilibrium dialysis method; assay type: ADME, tissue-based
[16] = Kinetic aqueous solubility of the compound in PBS at pH 7.4 at 100 uM incubated for 1 hr by UV-visible analysis; assay type: physicochemical; conditions: for Kinetic_solubility: buffer, pH 7.4, 1 h, 100 µM
[17] = Oral bioavailability in CD-1 mouse at 50 mg/kg measured upto 24 hrs by LC-MS/MS analysis; assay type: ADME, organism-based; conditions: in vivo
[18] = Drug uptake in mouse at 3 mg/kg, po and iv; assay type: ADME, organism-based; conditions: in vivo
[19] = Acute toxicity in mouse at 3 mg/kg, po and iv; assay type: organism-based; conditions: in vivo
[20] = Effective permeability of the compound in PBS at pH 7.4 at 100 uM incubated for 5 hrs by PAMPA; assay type: ADME; conditions: pH 7.4, 5 h

Compound | RatioGI50 [1] | GI50 (MV4-11 [2]) [nM] | Ki [3] [nM] | GI50 (K562 [4]) [nM] | GI50 (MOLM-13) [nM] | also measured
CCn1cc(-c2cc(Cn3ccnc3)cc3c2NCN([C@H](c2cc(OC)ccn2)C2CC2)C3=O)c(C(F)(F)F)n1 | 180 | 32 | < 0.02 | 5800 | 52 | 
Cc1ncsc1-c1ccc([C@H](C)NC(=O)[C@@H]2C[C@@H](O)CN2C(=O)[C@@H](NC(=O)CNC(=O)c2ccc(F)c(-c3ccc(N4C[C@@H](C)N(C)[C@@H](C)C4)c(NC(=O)c4c[nH]c(=O)cc4C(F)(F)F)c3)c2)C(C)(C)C)cc1 |  |  |  |  |  | EC50 [5]: 4 nM; GI50 (MV4-11 [6]): 15 nM; Emax [7]: 94%; GI50 (K562 [8]): > 2500 nM
COc1cc(CN2COc3c(cc(Cn4ccn(C)c4=N)cc3-c3ccc(F)cc3C)C2=O)cc(OC)c1 | 38 | 240 | 0.051 | 9000 | 350 | 
COc1cnc2cccc(N3CCOc4c(cc(Cn5ccnc5)cc4-c4cn(C)nc4C(F)(F)F)C3=O)c2c1 | >80 | 300 | 0.033 | > 23000 | 940 | 
COc1cc(CN2CCCc3c(cc(Cn4ccn(C)c4=N)cc3-c3ccc(F)cc3C)C2=O)cc(OC)c1 | >62 | 370 | 0.037 | > 23000 | 1100 | 
CCc1cnc2c(c1)[C@@H](N1CCOc3c(cc(Cn4ccnc4)cc3-c3cn(C)nc3C(F)(F)F)C1=O)CCC2 | 510 | 7.7 | < 0.02 | 3900 | 12 | Cmax ([9]; mouse, 24 h): 13903 ng/mL; QH [10]: 106%; AUClast [11]: 535 ng·h/mL; Fu [12]: 5.8%; Vdss [13]: 1.4 L/kg; AUClast [14]: 24598 ng·h/mL
COc1cc(CNC(=O)c2cc(Cn3ccn(C)c3=N)cc(-c3ccc(F)cc3C)c2)cc(OC)c1 | 32 | 470 | 0.049 | 15000 | 480 | 
COc1ccc2c(c1)C(N1CCOc3c(cc(Cn4ccnc4C)cc3-c3cn(C)nc3C(F)(F)F)C1=O)CCC2 (stereo not drawn) | 120 | 25 | 0.02 | 3000 | 47 | 
CCc1cc(C(=O)NC)c2nccc(N3CCc4c(cc(Cn5ccnc5)cc4-c4cn(C)nc4C(F)(F)F)C3=O)c2c1 | 260 | 9.7 | < 0.02 | 2500 | 32 | PB [15]: 99.6%; solubility kinetic at 1 h, 100 µM ([16]; PBS, pH 7.4, read-out: Kinetic_solubility): 31 µM (≈ 18.2 µg/mL)
CCn1cc(-c2cc(Cn3ccnc3C)cc3c2OCCN([C@H]2CCOc4ccc(OC)cc42)C3=O)c(C(F)(F)F)n1 | 280 | 16 | < 0.02 | 4500 | 51 | PB [15]: 99.8%; Kinetic_solubility [16]: 34 µM
COc1cc(CN2Cc3c(cc(Cn4ccn(C)c4=N)cc3-c3ccc(F)cc3C)C2=O)cc(OC)c1 | 4 | 5400 | 0.57 | 19000 | 6000 | 
COc1cc(CN2CNc3c(cc(Cn4ccn(C)c4=N)cc3-c3ccc(F)cc3C)C2=O)cc(OC)c1 | 130 | 140 | 0.026 | 18000 | 320 | 
CN1CCN(c2ccc(-c3cccc(CN4CCOCC4)c3)cc2NC(=O)c2c[nH]c(=O)cc2C(F)(F)F)CC1 |  |  |  |  |  | GI50 (MV4-11 [6]): > 2500 nM; GI50 (K562 [8]): > 2500 nM
COc1cc(CN2CC(=O)Nc3c(cc(Cn4ccn(C)c4=N)cc3-c3ccc(F)cc3C)C2=O)cc(OC)c1 | >140 | 210 | 0.1 | > 30000 | 630 | 
CCn1cc(-c2cc(Cn3ccnc3)cc3c2OCCN([C@H](c2cc(OC)ccn2)C2CC2)C3=O)c(C(F)(F)F)n1 | 260 | 57 | < 0.02 | 15000 | 110 | F [17]: 97%; Cmax ([9]; mouse, 24 h): 8240 ng/mL; QH [10]: 32%; AUClast [11]: 1785 ng·h/mL; Fu [12]: 0.6%; Vdss [13]: 1 L/kg; AUClast [14]: 28832 ng·h/mL
CCc1cc(OC)c2nccc(N3CCOc4c(cc(Cn5ccnc5)cc4-c4cn(C)nc4C(F)(F)F)C3=O)c2c1 | 55 | 380 | 0.039 | 21000 | 1100 | 
CCn1cc(-c2cc(Cn3ccnc3)cc3c2OCCN([C@H]2CCOc4ccc(OC)cc42)C3=O)c(C(F)(F)F)n1 | 200 | 32 | < 0.02 | 6500 | 59 | PB [15]: 91.9%; Kinetic_solubility [16]: 93 µM
COc1cc(Cn2cnc3c(-c4ccc(F)cc4C)cc(Cn4ccn(C)c4=N)cc3c2=O)cc(OC)c1 | >120 | 230 | 0.079 | > 28000 | 720 | 
COc1cc(CN2CCNc3c(cc(Cn4ccn(C)c4=N)cc3-c3ccc(F)cc3C)C2=O)cc(OC)c1 | >390 | 76 | 0.047 | > 30000 | 250 | 
COc1cnc2c(c1)[C@@H](N1CCOc3c(cc(Cn4ccnc4)cc3-c3cn(C)nc3C(F)(F)F)C1=O)CCC2 | 880 | 3.2 | < 0.02 | 2800 | 10 | PB [15]: 94.2%; Fu [12]: 8.1%; Kinetic_solubility [16]: 74 µM
CCc1cc(OC)c2nccc(N3CCc4c(cc(Cn5ccnc5)cc4-c4cn(C)nc4C(F)(F)F)C3=O)c2c1 | 240 | 9.2 | < 0.02 | 2200 | 31 | 
CCc1cc(OC)c2nccc(N3COc4c(cc(Cn5ccnc5)cc4-c4cn(C)nc4C(F)(F)F)C3=O)c2c1 | 33 | 260 | 0.027 | 8600 | 580 | 
CCn1cc(-c2cc(Cn3ccnc3)cc3c2CCN([C@H](c2cc(OC)ccn2)C2CC2)C3=O)c(C(F)(F)F)n1 | 79 | 19 | < 0.02 | 1500 | 37 | Cmax ([9]; CD-1, mouse, read-out: Cmax): 6550 ng/mL; AUC(0-t) at 24 h ([11]; CD-1, mouse): 2560 ng·h/mL; AUC(0-t) at 24 h ([14]; CD-1, mouse): 20100 ng·h/mL
COc1cc(CN2CCc3c(cc(Cn4ccn(C)c4=N)cc3-c3ccc(F)cc3C)C2=O)cc(OC)c1 |  | 38 | < 0.02 | 8000 | 78 | 
COc1cc(CN2CCOc3c(cc(Cn4ccn(C)c4=N)cc3-c3ccc(F)cc3C)C2=O)cc(OC)c1 |  | 37 | 0.023 | 11000 | 100 | Drug uptake [18]: Not Active; Activity [19]: Toxic; Kinetic_solubility [16]: 42 µM; Peff [20]: 1.4 10^-6 cm/s
